The results in this text go back to patent publication US12071414B2, “Apelin receptor agonists and methods of use thereof” (Sanford Burnham Prebys Medical Discovery Institute, priority 2015, dated 2024).

Structures are written as SMILES. pEC50: −log10 of the molar value.

As a reminder, the pEC50 is the negative decadic logarithm of the EC50, by convention in mol/L.

The assay has as its target T1, human apelin receptor (APJ, AGTRL-one, APLNR) (Homo sapiens, UniProt P35414).
T1 construct: host or cells: Chinese hamster ovary cells, stably integrated receptor
T1 sequence (P35414 1-380): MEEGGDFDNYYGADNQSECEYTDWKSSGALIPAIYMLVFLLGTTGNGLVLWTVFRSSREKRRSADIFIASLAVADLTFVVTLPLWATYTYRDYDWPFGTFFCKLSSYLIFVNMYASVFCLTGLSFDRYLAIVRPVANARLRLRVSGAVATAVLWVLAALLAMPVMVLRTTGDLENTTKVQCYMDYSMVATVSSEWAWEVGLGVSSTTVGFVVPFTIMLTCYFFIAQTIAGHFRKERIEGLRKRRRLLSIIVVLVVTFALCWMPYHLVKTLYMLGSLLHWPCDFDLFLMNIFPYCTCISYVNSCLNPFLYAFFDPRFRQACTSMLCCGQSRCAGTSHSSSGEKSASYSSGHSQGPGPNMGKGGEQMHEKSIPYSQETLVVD
In words: cell-based cAMP TR-FRET assay of apelin receptor activation. The settings on record: CHO cells expressing human APJ, forskolin-stimulated cAMP, 0.5 h incubation, 50% of control (apelin-13, 1 nM) response; read-out: Potency Category (EC50). The protocol:
The assays disclosed herein were performed using cell lines from DiscoveX, Inc. Biological activity was determined to the cell—based assay. This assay detects activation of the receptor by reporting on intracellular cyclic adenosine monophosphate (cAMP) level. Chinese hamster ovary cells engineered to express the stably integrated human apelin receptor (APJ, AGTRL—one, APLNR), pleaded into the wells of the microtiter plate. Cells were stimulated with […] to increase intracellular cyclic AMP. Immediately following, compounds were added to the range of final concentrations 0.0-100 μM, in DMSO (not to exceed a final DMSO concentration greater than 1% ν/ν), and allowed to incubate with the cells for 0.5 h. At the end of the incubation, cells were lysed to stop APJ signaling and cAMP was quantified using a commercially available competitive immunoassay kit that applies homogenous time—resolved florescence energy transfer (TR—FRET). The assay is based on the competition between a europium (Eu) chelate—labeled cAMP donor tracer and cellular cAMP for binding sites on a cAMP—specific monoclonal antibody labeled with an acceptor fluorophore. When antibodies are bound to the cAMP tracer light emissions at 320 nm stimulate the energy transfer from the donor to the acceptor, which in turn emits light at 665 nm. In the presence of competitive unlabeled cAMP (derived from the activity of the receptor or forskolin-stimulated production of cAMP), the labelled cAMP tracer is dissociated from the cAMP antibody, resulting in a loss of FRET signal. The amount of light emitted by the FRET is inversely proportional to the cAMP generated by the cell/receptor system. Potency and efficacy at APJ are reported in reference to the canonical APJ receptor agonist apelin—13 when tested at 1 nM. […] Compound efficacy (% response) is reported as a percentage of the maximal apein-13 response at 1 nM (control). Potencies were calculated by fitting a […] logistic curve to concentration response consisting of at least 10 discrete data points spanning effective range of the compounds in the cell-based assay that measures cAMP. […] Category B is 200-500 nM; Category C is 100-200 nM; Category D is 50-100 nM; and Category E is <50 nM.
(In general: Time-resolved FRET reads energy transfer from a long-lived donor to a nearby acceptor.)
As for `COc1cc2nc(NC(=O)C(Oc3ccc(C#N)cc3)c3ccccc3)sc2cc1OC` (centres unmarked), the pEC50 was 6.70 to 7.00.
In the case of `CCS(=O)(=O)c1ccc(C(Oc2ccc(C#N)cc2C(F)(F)F)C(=O)Nc2nc3cc(OC)c(OC)cc3s2)cc1` (centres unmarked) it was 6.70 to 7.00; in that of `COc1cc2nc(NC(=O)C(Oc3ccc(C(=O)N4CCNCC4)cc3)c3ccc(C#N)cc3)sc2cc1OC` (centres unmarked), more than 7.30.
In the case of `COc1cc2nc(NC(=O)Cc3ccc(S(=O)(=O)C4CCCC4)cc3)sc2cc1OC` it was less than 6.30; in that of `CCS(=O)(=O)c1ccc(C(NC2CCCC2)C(=O)Nc2nc3cc(OC)c(OC)cc3s2)cc1` (centres unmarked), less than 6.30; in that of `COc1cc2nc(NC(=O)C(Oc3ccc(C#N)cc3)c3ccc(C(=O)N(C)C)cc3)sc2cc1OC` (centres unmarked), more than 7.30.
For the compound `CCS(=O)(=O)c1ccc(C(Oc2ccccc2OC)C(=O)Nc2nc3cc(OC)c(OC)cc3s2)cc1` (centres unmarked), the negative-log EC50 (pEC50) was less than 6.30.
As for `COc1cc2nc(NC(=O)C(Oc3ccc(O)cc3)c3ccc(C#N)cc3)sc2cc1OC` (centres unmarked), the pEC50 was less than 6.30.
Consider `CCS(=O)(=O)c1ccc(C(Oc2cccc(OC)c2)C(=O)Nc2nc3cc(OC)c(OC)cc3s2)cc1` (centres unmarked), for which the pEC50 is less than 6.30.
In the case of `CCS(=O)(=O)c1ccc(C(Oc2ccc(Br)cc2)C(=O)Nc2nc3cc(OC)c(OC)cc3s2)cc1` (centres unmarked) it was 6.30 to 6.70; in that of `COc1cc2nc(NC(=O)C(Oc3ccc(C#N)cc3)c3ccc(C(=O)N4CCN(C)CC4)cc3)sc2cc1OC` (centres unmarked), 6.30 to 6.70.
Regarding `COc1ccc(OC(C(=O)Nc2nc3cc(OC)c(OC)cc3s2)c2ccccc2S(=O)(=O)c2ccc(F)cc2)cc1` (centres unmarked), the pEC50 was less than 6.30.
As to `COc1cc2nc(NC(=O)C(Oc3ccc(C#N)cc3)c3ccc(C(=O)NCCN4CCCC4)cc3)sc2cc1OC` (centres unmarked), the pEC50 is 6.30 to 6.70.
In the case of `COCCOc1ccc(C(Oc2ccc(C#N)cc2)C(=O)Nc2nc3cc(OC)c(OC)cc3o2)cc1` (centres unmarked) it was more than 7.30.
As to `CCS(=O)(=O)c1ccc(C(Oc2ccc(Cl)cc2)C(=O)Nc2nc3cc(OC)c(OC)cc3s2)cc1` (centres unmarked), the negative logarithm of the EC50 (pEC50) is 6.70 to 7.00.
In the case of `COc1cc2nc(NC(=O)C(Oc3ccc(C#N)cc3)c3cccc(S(=O)(=O)c4ccc(Cl)cc4)c3)sc2cc1OC` (centres unmarked) it was 6.30 to 6.70; in that of `COc1cc2nc(NC(=O)C(Oc3ccc(C#N)cc3)c3ccc(OCCN4CCCC4)cc3)sc2cc1OC` (centres unmarked), 6.30 to 6.70.
In the case of `CCS(=O)(=O)c1ccc(C(Oc2ccc(C#N)c(Cl)c2)C(=O)Nc2nc3cc(OC)c(OC)cc3s2)cc1` (centres unmarked) it was more than 7.30; in that of `CCS(=O)(=O)c1ccc(C(Oc2ccc(OCc3ccccc3)cc2)C(=O)Nc2nc3cc(OC)c(OC)cc3s2)cc1` (centres unmarked), less than 6.30; in that of `COc1cc2nc(NC(=O)C(Oc3ccc(C#N)cc3)c3ccc(Cl)cc3)sc2cc1OC` (centres unmarked), 6.70 to 7.00.
In the case of `CCS(=O)(=O)c1ccc(C(Oc2ccccc2Cl)C(=O)Nc2nc3cc(OC)c(OC)cc3s2)cc1` (centres unmarked) it was less than 6.30.
Take `COc1cc2nc(NC(=O)C(Oc3ccc(C#N)cc3)c3ccc(S(=O)(=O)c4ccc(C(F)(F)F)cc4)cc3)sc2cc1OC` (centres unmarked): the pEC50 was less than 6.30.
`CCS(=O)(=O)c1ccc(C(C(=O)Nc2nc3cc(OC)c(OC)cc3s2)N2CCOCC2)cc1` (centres unmarked): the pEC50 is less than 6.30.
With `CCOc1cc2nc(NC(=O)C(Oc3ccc(C#N)cc3)c3ccc(S(=O)(=O)CC)cc3)sc2cc1OC` (centres unmarked) the figure was more than 7.30; with `CCS(=O)(=O)c1ccc(C(Oc2ccc(C#N)cc2)C(=O)Nc2nc3ccc4c(c3s2)OCO4)cc1` (centres unmarked), less than 6.30; with `COc1cc2nc(NC(=O)C(Oc3ccc(C#N)cc3)c3ccc(C(=O)NCCN(C)C)cc3)sc2cc1OC` (centres unmarked), 7.00 to 7.30.
In the case of `CCS(=O)(=O)c1ccc(C(Oc2ccc(C#N)cc2C)C(=O)Nc2nc3cc(OC)c(OC)cc3s2)cc1` (centres unmarked) it was more than 7.30; in that of `COc1cc2nc(NC(=O)Cc3ccc(C(=O)N(C)C)cc3)sc2cc1OC`, less than 6.30; in that of `CCS(=O)(=O)c1ccc(C(Oc2ccc(C#N)cc2)C(=O)N(C)c2nc3cc(OC)c(OC)cc3s2)cc1` (centres unmarked), 7.00 to 7.30.
In the case of `CCS(=O)(=O)c1ccc(C(Oc2ccc(C#N)cc2)C(=O)Nc2nc3ccc(OC)c(OC(C)C)c3s2)cc1` (centres unmarked) it was more than 7.30; in that of `CCS(=O)(=O)c1ccc(C(Nc2ccc(C#N)cc2)C(=O)Nc2nc3cc(OC)c(OC)cc3s2)cc1` (centres unmarked), more than 7.30.
In the case of `COc1cc2nc(NC(=O)C(Oc3ccc(C(=O)NCCN4CCCC4)cc3)c3ccc(C#N)cc3)sc2cc1OC` (centres unmarked), the pEC50 is 6.30 to 6.70.
`CCS(=O)(=O)c1ccc(C(Oc2ccc(C#N)cc2)C(=O)Nc2nc3cc(OC)c(OC)cc3o2)cc1` (centres unmarked): the negative-log EC50 (pEC50) is more than 7.30.
In the case of `CCS(=O)(=O)c1ccc(C(Oc2ccc(C)cc2)C(=O)Nc2nc3cc(OC)c(OC)cc3s2)cc1` (centres unmarked) it was 6.30 to 6.70; in that of `COc1ccc(S(=O)(=O)c2ccc(C(Oc3ccc(C#N)cc3)C(=O)Nc3nc4cc(OC)c(OC)cc4s3)cc2)cc1` (centres unmarked), 6.70 to 7.00; in that of `COc1ccc(OC(C(=O)Nc2nc3cc(OC)c(OC)cc3s2)c2ccc(C#N)cc2)cc1` (centres unmarked), more than 7.30.
With `COc1cc2nc(NC(=O)C(Oc3ccccc3)c3ccc(C#N)cc3)sc2cc1OC` (centres unmarked) the figure was less than 6.30.
`COc1cc2nc(NC(=O)C(Oc3ccc(C#N)cc3)c3ccc(C(=O)NCCN4CCCCC4)cc3)sc2cc1OC` (centres unmarked): the pEC50 was more than 7.30.
With `CCS(=O)(=O)c1ccc(C(Oc2ccc(C#N)cc2)C(=O)Nc2cc3ccccc3[nH]2)cc1` (centres unmarked) the figure was less than 6.30.
With `CCS(=O)(=O)c1ccc(C(Oc2ccc(C#N)cc2)C(=O)Nc2nc3cc4c(cc3s2)OCCO4)cc1` (centres unmarked) the figure was less than 6.30; with `CCS(=O)(=O)c1ccccc1C(Oc1ccc(C#N)cc1)C(=O)Nc1nc2cc(OC)c(OC)cc2s1` (centres unmarked), more than 7.30.
In the case of `CCS(=O)(=O)c1ccc(C(Oc2ccc(C#N)cc2)C(=O)Nc2nc3c4c(ccc3s2)OCO4)cc1` (centres unmarked) it was less than 6.30; in that of `CCS(=O)(=O)c1ccc(C(OC2CCOCC2)C(=O)Nc2nc3cc(OC)c(OC)cc3s2)cc1` (centres unmarked), less than 6.30; in that of `CCS(=O)(=O)c1ccc(C(Oc2ccc(OC)cc2)C(=O)Nc2nc3ccc(N4CCN(C)CC4)cc3s2)cc1` (centres unmarked), less than 6.30.
As for `CCS(=O)(=O)c1cccc(C(Oc2ccc(C#N)cc2)C(=O)Nc2nc3cc(OC)c(OC)cc3s2)c1` (centres unmarked), the pEC50 is 6.30 to 6.70.
Consider `COc1cc2nc(NC(=O)C(Oc3ccc(C#N)cc3)c3ccccc3S(=O)(=O)c3ccc(F)cc3)sc2cc1OC` (centres unmarked), for which the negative logarithm of the EC50 (pEC50) is 6.30 to 6.70.
On to `COc1cc2nc(NC(=O)C(Oc3ccc(C#N)cc3)c3ccc(C(=O)NCCN4CCOCC4)cc3)oc2cc1OC` (centres unmarked), for which the pEC50 is 6.30 to 6.70.
Take `CCS(=O)(=O)c1ccc(CC(=O)Nc2nc3cc(N(C)C)ccc3s2)cc1`: the pEC50 is less than 6.30.
With `CCS(=O)(=O)c1ccc(CC(=O)Nc2nc3c4c(ccc3s2)OCO4)cc1` the figure was less than 6.30; with `COc1cc2nc(NC(=O)Cc3ccccc3C(=O)O)sc2cc1OC`, less than 6.30.
`COc1cc2nc(NC(=O)Cc3ccc(S(=O)(=O)N(C)C)cc3)sc2cc1OC`: the pEC50 was less than 6.30.
In the case of `CCS(=O)(=O)c1ccc(C(CC2CC2)C(=O)Nc2nc3cc(OC)c(OC)cc3s2)cc1` (centres unmarked) it was less than 6.30; in that of `COCCS(=O)(=O)c1ccc(C(Oc2ccc(C#N)cc2)C(=O)Nc2nc3cc(OC)c(OC)cc3s2)cc1` (centres unmarked), more than 7.30.
With `CCS(=O)(=O)c1ccc(C(Oc2cccc(C#N)c2)C(=O)Nc2nc3cc(OC)c(OC)cc3s2)cc1` (centres unmarked) the figure was less than 6.30; with `COc1cc2nc(NC(=O)C(Oc3ccc(C#N)cc3)c3ccc([N+](=O)[O-])cc3)sc2cc1OC` (centres unmarked), more than 7.30.
In the case of `CCS(=O)(=O)c1cccc(C(Oc2ccc(C#N)cc2)C(=O)Nc2nc3ccc(OCCOC)cc3s2)c1` (centres unmarked) it was less than 6.30.
